Measured values reported in BindingDB's records for doi:10.1021/jm0491492 (Uppsala University, 2005).

target: Type-2 angiotensin II receptor (Sus scrofa); experiment: Displacement of [125I]-Ang II from angiotensin II receptor type 2 in pig uterus myometrium

SMILES | Ki [nM]
N=C(N)NCCC[C@H](NC(=O)[C@@H](N)CC(=O)O)C(=O)Nc1cccc2c1N[C@@H](Cc1ccc(O)cc1)C(=O)N(CC(=O)N[C@@H](Cc1cnc[nH]1)C(=O)N1CCC[C@H]1C(=O)N[C@@H](Cc1ccccc1)C(=O)O)C2 [(3S)-3-amino-3-{[(1S)-1-{[(2S)-4-({[(2S)-1-[(2S)-2-{[(1S)-1-carboxy-2-phenylethyl]carbamoyl}pyrrolidin-1-yl]-3-(1H-imidazol-4-yl)-1-oxopropan-2-yl]carbamoyl}methyl)-2-[(4-hydroxyphenyl)methyl]-3-oxo-2,3,4,5-tetrahydro-1H-1,4-benzodiazepin-9-yl]carbamoyl}-4-[(diaminomethylidene)amino]butyl]carbamoyl}propanoic acid] | 2.8
CC(C)[C@H](NC(=O)[C@H](CCCNC(=N)N)NC(=O)[C@@H](N)CC(=O)O)C(=O)Nc1cccc2c1N[C@@H](Cc1ccc(O)cc1)C(=O)N(CC(=O)N[C@@H](Cc1cnc[nH]1)C(=O)N1CCC[C@H]1C(=O)N[C@@H](Cc1ccccc1)C(=O)O)C2 [(3S)-3-amino-3-{[(1S)-1-{[(1S)-1-{[(2S)-4-({[(2S)-1-[(2S)-2-{[(1S)-1-carboxy-2-phenylethyl]carbamoyl}pyrrolidin-1-yl]-3-(1H-imidazol-4-yl)-1-oxopropan-2-yl]carbamoyl}methyl)-2-[(4-hydroxyphenyl)methyl]-3-oxo-2,3,4,5-tetrahydro-1H-1,4-benzodiazepin-9-yl]carbamoyl}-2-methylpropyl]carbamoyl}-4-[(diaminomethylidene)amino]butyl]carbamoyl}propanoic acid] | 0.8
CC(C)[C@H](NC(=O)[C@H](C)NC(=O)[C@@H](N)CC(=O)O)C(=O)Nc1cccc2c1N[C@@H](Cc1ccc(O)cc1)C(=O)N(CC(=O)N[C@@H](Cc1cnc[nH]1)C(=O)N1CCC[C@H]1C(=O)N[C@@H](Cc1ccccc1)C(=O)O)C2 [(3S)-3-amino-3-{[(1S)-1-{[(1S)-1-{[(2S)-4-({[(2S)-1-[(2S)-2-{[(1S)-1-carboxy-2-phenylethyl]carbamoyl}pyrrolidin-1-yl]-3-(1H-imidazol-4-yl)-1-oxopropan-2-yl]carbamoyl}methyl)-2-[(4-hydroxyphenyl)methyl]-3-oxo-2,3,4,5-tetrahydro-1H-1,4-benzodiazepin-9-yl]carbamoyl}-2-methylpropyl]carbamoyl}ethyl]carbamoyl}propanoic acid] | 9.3
